According to patent US8524730B2, “Spirochromanone carboxylic acids” (MSD K.K., priority 2008, dated 2013):

Columns and labels:
human ACC1 = human ACC1 (Homo sapiens, UniProt Q13085); test: Acetyl CoA carboxylase (ACC) activity inhibition test, human ACC1; type: biochemical; settings: 1 μmol/liter compound; read-out: Inhibition (%) by 1 μmol/liter Chemical, human ACC1
Description: (§1) A. Pharmacological Test Example (Acetyl CoA Carboxylase (ACC) Activity Inhibition Test)
(§2) A test compound is dissolved in dimethyl sulfoxide (DMSO) to a concentration of 10 mM and then diluted with DMSO to give a 100-fold concentrated solution of the compound compared with target assay concentration. The ACC enzyme activity inhibition test is carried out according to a modification of Thampy & Wakil's method (J. Biol. Chem., Vol. 260, pp. 6318-6323 (1985)). Concretely, 0.8 μl of the diluted test compound is added to each well of 96-well assay plate (Perkin Elmer Opti Plate), then 40 μl of a substrate solution (50 mM Hepes sodium (pH 7.5), 2 mM DTT, 10 mM ATP, 500 μM acetyl CoA, 0.17 mM NaH[^14C]O3 (58 mCi/mmol by Amersham), 8 mM NaHCO3) is added to each well, and 40 μL of an enzyme solution (1 to 2 nM human ACC1 or human ACC2, 50 mM Hepes sodium (pH 7.5), 2 mM DTT, 40 mM MgCl2, 40 mM tripotassium citrate 1 mg/ml fetal bovine serum albumin) is added thereto. Then, the upper side of the plate is sealed up, and the plate is incubated with gently stirring at 37° C. for 40 minutes. Next, 20 μl of 1 N HCl is added to each well to stop the enzyme reaction, and the assay plate is stirred overnight to remove the unreacted NaH[^14C]O3. Next, 100 μl of a scintillator (Perkin Elmer's Microscinti 40) is added to each well and the plate is stirred, then the radioactivity of the fixed [^14C] is counted using a microplate scintillation counter (Perkin Elmer's Topcount), the radioactivity of which represents the enzyme activity in each well. The human ACC1 and human ACC2 enzyme-inhibition activities of the test compounds are calculated, based on the radioactivity of the well added by DMSO without test compound as a control.

human ACC2 = human ACC2 (Homo sapiens, UniProt O00763); test: Acetyl CoA carboxylase (ACC) activity inhibition test, human ACC2; type: biochemical; settings: 1 μmol/liter compound; read-out: Inhibition (%) by 1 μmol/liter Chemical, human ACC2
human ACC2, sequence (O00763 whole entry): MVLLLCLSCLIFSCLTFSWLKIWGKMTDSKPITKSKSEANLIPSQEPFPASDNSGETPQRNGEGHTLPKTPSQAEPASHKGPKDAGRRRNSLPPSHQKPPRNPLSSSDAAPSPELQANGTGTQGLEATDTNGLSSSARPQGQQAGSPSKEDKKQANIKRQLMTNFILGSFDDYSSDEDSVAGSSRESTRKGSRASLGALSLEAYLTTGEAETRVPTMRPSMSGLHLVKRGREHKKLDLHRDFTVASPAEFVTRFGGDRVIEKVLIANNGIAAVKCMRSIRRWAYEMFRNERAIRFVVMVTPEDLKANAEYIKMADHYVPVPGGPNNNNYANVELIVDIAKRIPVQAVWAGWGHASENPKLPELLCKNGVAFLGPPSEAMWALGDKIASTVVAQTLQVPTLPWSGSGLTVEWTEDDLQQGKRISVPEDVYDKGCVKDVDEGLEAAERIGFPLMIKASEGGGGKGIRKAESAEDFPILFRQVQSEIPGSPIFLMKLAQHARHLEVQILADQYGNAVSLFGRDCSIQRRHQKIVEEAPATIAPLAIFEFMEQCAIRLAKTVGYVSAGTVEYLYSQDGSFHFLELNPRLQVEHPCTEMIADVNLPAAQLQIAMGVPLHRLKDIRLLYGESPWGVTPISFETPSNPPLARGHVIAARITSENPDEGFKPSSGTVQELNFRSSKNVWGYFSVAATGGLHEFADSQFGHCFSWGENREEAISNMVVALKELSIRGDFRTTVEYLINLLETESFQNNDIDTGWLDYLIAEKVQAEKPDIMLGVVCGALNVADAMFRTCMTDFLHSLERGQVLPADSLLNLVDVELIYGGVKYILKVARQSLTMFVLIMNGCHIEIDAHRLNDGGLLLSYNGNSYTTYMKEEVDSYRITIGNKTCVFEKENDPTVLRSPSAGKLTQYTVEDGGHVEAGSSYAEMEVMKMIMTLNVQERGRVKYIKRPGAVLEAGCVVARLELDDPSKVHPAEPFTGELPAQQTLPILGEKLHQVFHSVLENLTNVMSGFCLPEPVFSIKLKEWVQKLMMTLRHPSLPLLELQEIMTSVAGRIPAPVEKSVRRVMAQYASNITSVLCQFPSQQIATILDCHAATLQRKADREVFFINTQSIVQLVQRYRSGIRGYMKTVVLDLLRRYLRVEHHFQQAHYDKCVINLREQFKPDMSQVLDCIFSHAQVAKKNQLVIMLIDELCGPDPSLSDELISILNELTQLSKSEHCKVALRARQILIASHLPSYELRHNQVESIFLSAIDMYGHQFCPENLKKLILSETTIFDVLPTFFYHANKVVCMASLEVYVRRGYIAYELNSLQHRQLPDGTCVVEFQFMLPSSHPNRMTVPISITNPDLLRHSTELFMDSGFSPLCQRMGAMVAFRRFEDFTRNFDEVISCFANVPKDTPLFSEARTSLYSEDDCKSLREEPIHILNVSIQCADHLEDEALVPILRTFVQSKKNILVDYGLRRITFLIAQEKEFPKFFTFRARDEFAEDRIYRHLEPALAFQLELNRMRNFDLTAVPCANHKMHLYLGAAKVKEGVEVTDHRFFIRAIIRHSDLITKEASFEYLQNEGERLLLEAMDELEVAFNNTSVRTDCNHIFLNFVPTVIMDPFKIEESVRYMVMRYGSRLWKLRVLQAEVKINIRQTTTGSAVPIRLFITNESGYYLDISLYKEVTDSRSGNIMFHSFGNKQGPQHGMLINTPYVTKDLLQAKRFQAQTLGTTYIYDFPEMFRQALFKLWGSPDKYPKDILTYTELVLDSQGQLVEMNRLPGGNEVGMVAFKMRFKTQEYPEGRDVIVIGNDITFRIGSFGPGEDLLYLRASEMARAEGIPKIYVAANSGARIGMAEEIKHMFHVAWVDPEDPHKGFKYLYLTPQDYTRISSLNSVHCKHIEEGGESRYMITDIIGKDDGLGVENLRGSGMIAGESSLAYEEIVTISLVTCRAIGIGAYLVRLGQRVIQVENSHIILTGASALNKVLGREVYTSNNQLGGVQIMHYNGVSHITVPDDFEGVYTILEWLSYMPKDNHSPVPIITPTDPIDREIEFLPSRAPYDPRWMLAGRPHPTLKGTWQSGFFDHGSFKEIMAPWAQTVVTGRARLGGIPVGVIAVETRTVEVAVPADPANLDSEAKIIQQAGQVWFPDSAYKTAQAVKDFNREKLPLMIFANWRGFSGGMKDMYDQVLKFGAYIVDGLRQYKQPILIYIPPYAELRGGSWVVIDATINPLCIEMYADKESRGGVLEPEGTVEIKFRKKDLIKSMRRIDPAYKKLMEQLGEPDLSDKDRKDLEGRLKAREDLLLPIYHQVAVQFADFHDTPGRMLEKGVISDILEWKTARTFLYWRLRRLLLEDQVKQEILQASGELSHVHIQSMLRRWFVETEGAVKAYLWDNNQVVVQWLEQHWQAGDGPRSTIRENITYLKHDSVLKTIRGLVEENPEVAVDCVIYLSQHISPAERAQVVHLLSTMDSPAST
Description: as §1, §2

SMILES | inhibition at 1 µM (human ACC1) | inhibition at 1 µM (human ACC2)
CCOc1cc(C(=O)N2CCC3(CC2)CC(=O)c2cc(-c4ccc(C(N)=O)cc4)ccc2O3)cc(OCC)c1-c1ccc(C(=O)O)cc1 [Example 3, 4′-({6-(4-Carbamoylphenyl)-4-oxospiro[chroman-2,4′-piperidin]-1′-yl}carbonyl)-2′,6′-diethoxybiphenyl-4-carboxylic acid] | 100% | 99%
Cc1nn(-c2ccc(C(=O)O)cc2)c2ccc(C(=O)N3CCC4(CC3)CC(=O)c3cc(-c5cnn(C)c5)ccc3O4)cc12 [Example 13, 4-(3-Methyl-5-{[6-(1-methyl-1H-pyrazol-4-yl)-4-oxospiro[chroman-2,4′-piperidin]-1′-yl]carbonyl}-1H-indazol-1-yl)benzoic acid] | 99% | 99%
CCOc1cc(C(=O)N2CCC3(CC2)CC(=O)c2cc(-c4ccc(C(N)=O)cn4)ccc2O3)cc(OCC)c1-c1ccc(C(=O)O)cc1 [Example 5] | 98% | 99%

More lines, now with the values ahead:

inhibition at 1 µM (human ACC1) | inhibition at 1 µM (human ACC2) | SMILES
99% | 100% | CCOc1cc(C(=O)N2CCC3(CC2)CC(=O)c2cc(-c4cnn(C)c4)ccc2O3)cc(OCC)c1-c1ccc(C(=O)O)cc1 [Example 18, Sodium 2′,6′-diethoxy-4′-{[6-(1-methyl-1H-pyrazol-4-yl)-4-oxospiro[chroman-2,4′piperidin]-1′-yl]carbonyl}biphenyl-4-carboxylate]
100% | 99% | CCOc1cc(C(=O)N2CCC3(CC2)CC(=O)c2cc(-c4cnn(C)c4)ccc2O3)cc(OCC)c1-c1cccc(C(=O)O)c1 [Example 20, Sodium 2′,6′-diethoxy-4′-{[6-(1-methyl-1H-pyrazol-4-yl)-4-oxospiro[chroman-2,4′-piperidin]-1′-yl]carbonyl}biphenyl-3-carboxylate]
100% | 100% | CCOc1cc(C(=O)N2CCC3(CC2)CC(=O)c2cc(-c4cnn(C)c4)ccc2O3)cc(OCC)c1-c1cncc(C(=O)O)c1 [Example 21, 5-(2,6-Diethoxy-4-{[6-(1-methyl-1H-pyrazol-4-yl)-4-oxospiro[chroman-2,4′-piperidin]-1′-yl]carbonyl}phenyl)nicotinic acid]
